# Target: T1, salivary amylase (Homo sapiens, UniProt P0DUB6)
# T1 construct: from tissue; host or cells: saliva in the mouths of the human panelists (in vivo)
# T1 sequence (P0DUB6 16-511): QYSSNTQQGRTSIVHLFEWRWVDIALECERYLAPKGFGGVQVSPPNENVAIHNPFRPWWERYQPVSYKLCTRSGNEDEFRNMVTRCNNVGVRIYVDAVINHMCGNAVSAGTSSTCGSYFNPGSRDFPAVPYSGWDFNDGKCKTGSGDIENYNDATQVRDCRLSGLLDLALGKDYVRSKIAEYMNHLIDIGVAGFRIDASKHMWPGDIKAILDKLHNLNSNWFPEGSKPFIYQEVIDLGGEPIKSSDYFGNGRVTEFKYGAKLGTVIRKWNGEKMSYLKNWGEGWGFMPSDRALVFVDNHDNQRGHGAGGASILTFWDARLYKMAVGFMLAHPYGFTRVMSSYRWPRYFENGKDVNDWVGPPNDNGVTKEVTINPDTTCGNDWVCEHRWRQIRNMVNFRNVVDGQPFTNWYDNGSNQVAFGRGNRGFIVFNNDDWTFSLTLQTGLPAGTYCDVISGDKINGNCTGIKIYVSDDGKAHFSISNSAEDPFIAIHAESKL
# Assay: acarbose study: sensory rating of vanilla custard desserts with added acarbose
# Type: in vivo
# Settings: Creamex custard
# Experimental: The role of salivary amylase in modifying texture sensations was evaluated in the following examples, in which the level of amylase activity was varied within subjects, rather than between subjects. Alpha-amylase was added in varying concentrations to starch and CMC (non-starch)-based vanilla custard desserts. Additionally, amylase activity was inhibited to various degrees by adding the pharmaceutical amylase inhibitor Acarbose (CAS nr. 56180-94-0) in various concentrations to the same test foods.
# Eighteen subjects, 11 females and 7 males aged between 18 and 34 yrs, participated the ‘amylase study’ and 7 different subjects, all females aged between 39 and 56 yrs, participated in the ‘acarbose study’. The subjects participating in the latter study had been informed about acarbose and its possibly side effects if swallowed. To avoid these side effects, subjects expectorated rather than swallowed the acarbose samples. All subjects signed consent forms expressing their willingness to participate in the studies, and all had previously been screened for olfactory and taste disorders and had received extensive training in the description of sensory mouthfeel and afterfeel attributes for semi-solid foods. Testing took place at the sensory facilities of TNO-Nutrition and Food Research in Zeist, The Netherlands. […]
smiles,measurement,value
C[C@H]1O[C@H](O[C@H]2[C@H](O)[C@@H](O)[C@@H](O[C@H]3[C@H](O)[C@@H](O)C(O)O[C@@H]3CO)O[C@@H]2CO)[C@H](O)[C@@H](O)[C@@H]1N[C@H]1C=C(CO)[C@@H](O)[C@H](O)[C@H]1O (stereo partly shown) [Acarbose],increase of creamy mouthfeel,up to 59%

# — patent publication US20080292760A1, “Semi-Solid Food Products and Methods For Their Production, Based on Inhibiting Amylase Starch Breakdown” (WAGENINGEN CENTRE FOR FOOD SCIENCES, priority 2004, published 2008)
